Measurements: US10099993B2, “Metabotropic glutamate receptor positive allosteric modulators (PAMS) and uses thereof” (Sanford-Burnham Medical Research Institute, priority 2014, dated 2018)
Blank lines part the entries; values can stand above or below the molecule they belong to.

What was measured:
[1] = biological target: mGlu2 (Rattus norvegicus (Rat), UniProt P31421); test: mGlu2 GIRK thallium flux assay; settings: for EC50: read-out: mGlu2 PAM EC50, test compound, then EC20 glutamate […] later in the presence of thallium; for EC50 / mGlu2 PAM Max: PAM mode, mean ± SEM, at least three experiments; for Emax: read-out: mGlu2 PAM Max; for mGlu2 PAM Max: % Glutamate Max;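 as to all read-outs here: Cell-based assay, rate of fluorescence rise right after thallium plus agonist addition read on a kinetic imaging plate reader, normalized to vehicle and maximal agonist control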
[2] = biological target: mGlu3 (Rattus norvegicus (Rat), UniProt P31422); test: mGlu3 GIRK thallium flux assay; settings: for EC50: read-out: mGlu3 PAM EC50, test compound, then EC20 glutamate […] later in the presence of thallium; for EC50 / mGlu3 PAM Max: PAM mode, mean ± SEM; for Emax: read-out: mGlu3 PAM Max; for mGlu3 PAM Max: % Glutamate Max;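 as to all read-outs here: kinetic fluorescence slope read shortly after thallium plus agonist addition, scaled between vehicle and maximal agonist control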
mGlu3, sequence (P31422 23-879): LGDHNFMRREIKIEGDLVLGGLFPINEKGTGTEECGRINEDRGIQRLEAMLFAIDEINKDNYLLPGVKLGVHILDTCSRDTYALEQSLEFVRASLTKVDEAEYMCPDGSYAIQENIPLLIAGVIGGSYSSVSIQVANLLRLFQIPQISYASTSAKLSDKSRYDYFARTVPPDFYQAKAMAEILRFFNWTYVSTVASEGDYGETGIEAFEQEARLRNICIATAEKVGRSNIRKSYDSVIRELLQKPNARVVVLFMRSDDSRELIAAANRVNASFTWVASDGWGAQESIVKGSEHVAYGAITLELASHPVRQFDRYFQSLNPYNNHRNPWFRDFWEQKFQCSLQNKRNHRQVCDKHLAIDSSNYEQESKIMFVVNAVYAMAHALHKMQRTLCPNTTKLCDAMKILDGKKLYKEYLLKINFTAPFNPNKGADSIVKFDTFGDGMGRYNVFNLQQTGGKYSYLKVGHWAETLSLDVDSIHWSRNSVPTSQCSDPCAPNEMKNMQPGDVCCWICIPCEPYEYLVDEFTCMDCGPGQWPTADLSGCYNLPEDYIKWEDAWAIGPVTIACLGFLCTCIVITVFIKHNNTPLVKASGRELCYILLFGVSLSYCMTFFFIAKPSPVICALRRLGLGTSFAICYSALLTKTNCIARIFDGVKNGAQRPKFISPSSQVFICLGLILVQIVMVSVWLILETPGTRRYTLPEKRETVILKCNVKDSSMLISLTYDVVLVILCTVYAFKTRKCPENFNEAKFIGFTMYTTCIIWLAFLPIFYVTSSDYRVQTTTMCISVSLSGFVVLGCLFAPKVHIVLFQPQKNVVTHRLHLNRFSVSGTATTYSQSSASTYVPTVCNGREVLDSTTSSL

mGlu2, sequence (P31421 19-872): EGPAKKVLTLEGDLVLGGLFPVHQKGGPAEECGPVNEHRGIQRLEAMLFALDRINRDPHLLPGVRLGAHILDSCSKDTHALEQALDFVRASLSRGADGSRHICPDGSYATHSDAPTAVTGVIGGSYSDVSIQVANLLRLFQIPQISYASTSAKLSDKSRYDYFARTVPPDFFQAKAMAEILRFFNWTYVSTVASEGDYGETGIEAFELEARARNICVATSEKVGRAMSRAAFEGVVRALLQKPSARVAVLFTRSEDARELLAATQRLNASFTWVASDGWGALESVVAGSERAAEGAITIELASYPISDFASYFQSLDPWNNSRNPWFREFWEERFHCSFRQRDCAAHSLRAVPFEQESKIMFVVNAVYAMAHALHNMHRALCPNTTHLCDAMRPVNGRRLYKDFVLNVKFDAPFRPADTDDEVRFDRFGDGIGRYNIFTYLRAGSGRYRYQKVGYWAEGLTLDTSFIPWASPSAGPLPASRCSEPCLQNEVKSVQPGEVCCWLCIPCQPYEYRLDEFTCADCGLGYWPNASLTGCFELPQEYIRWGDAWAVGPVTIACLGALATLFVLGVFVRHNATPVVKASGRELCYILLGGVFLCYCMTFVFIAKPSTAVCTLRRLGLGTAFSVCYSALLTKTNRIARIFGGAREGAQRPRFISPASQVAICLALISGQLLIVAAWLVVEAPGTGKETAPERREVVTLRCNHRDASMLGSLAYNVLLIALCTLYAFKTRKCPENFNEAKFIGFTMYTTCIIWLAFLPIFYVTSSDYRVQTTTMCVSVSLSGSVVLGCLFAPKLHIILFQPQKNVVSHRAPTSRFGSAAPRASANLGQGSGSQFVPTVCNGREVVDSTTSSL

Compound: Cc1c(OCc2cccc(-c3cc(F)cc(C(=O)O)c3)c2)ccc(C(=O)CC(C)(C)C)c1O [compound 136, 3′-((4-(3,3-Dimethylbutanoyl)-3-hydroxy-2-methylphenoxy)methyl)-5-fluoro-[1,1′-biphenyl]-3-carboxylic acid]
EC50 [1]: 308 ± 40 nM
Emax [1]: 93.3 ± 2.1%
EC50 [2]: 0.496 ± 0.086 µM
Emax [2]: 77.4 ± 7.1%

Compound: CC(=O)c1ccc(OCc2cccc(-c3cccc(C(=O)O)c3)c2)c(C)c1O [compound 128, 3′-((4-Acetyl-3-hydroxy-2-methylphenoxy)methyl)-[1,1′-biphenyl]-3-carboxylic acid]
EC50 [1]: 35 ± 13 nM
Emax [1]: 57.9 ± 6.6%
EC50 [2]: 1.29 ± 0.781 µM
Emax [2]: 67.8 ± 8.7%

Compound: Cc1c(OCc2cccc(COc3ccc(C#N)cc3)c2)ccc(C(=O)CC2CCCC2)c1C [compound 154]
EC50 [1]: > 30000 nM
EC50 [2]: > 30 µM

Compound: Cc1c(OCc2cccc(-c3occc3C(=O)O)c2)ccc(C(=O)CC(C)(C)C)c1O [Compound 178, 2-(3-((4-(3,3-Dimethylbutanoyl)-3-hydroxy-2-methylphenoxy)methyl)phenyl)furan-3-carboxylic acid]
EC50 [1]: 409 ± 105 nM
Emax [1]: 81.4 ± 10.1%
EC50 [2]: 2.87 ± 1.12 µM
Emax [2]: 67.7 ± 11.7%

Compound: Cc1c(OCc2cccc(-c3ccc(Cl)c(C(=O)O)c3)c2)ccc(C(=O)CC2CCCC2)c1C [compound 171]
mGlu2 PAM Max [1]: 12.3 ± 1.2%
EC50 [1]: > 30000 nM
mGlu3 PAM Max [2]: 10.7 ± 1.0%
EC50 [2]: > 30 µM

Emax [1]: 102 ± 3.5%
Emax [2]: 106 ± 6.4%
Compound: Cc1c(OCc2cc(-c3cccc(C(=O)O)c3)cs2)ccc(C(=O)CC(C)(C)C)c1O [compound 162, 3-(5-((4-(3,3-Dimethylbutanoyl)-3-hydroxy-2-methylphenoxy)methyl)thiophen-3-yl)benzoic acid]

Compound: Cc1c(OCCCCOc2ccc(C(=O)O)cc2)ccc(C(=O)CC2CCCC2)c1C [Compound 19, 4-(4-(4-(2-Cyclopentylacetyl)-2,3-dimethylphenoxy)butoxy)benzoic acid]
EC50 [1]: > 30000 nM
EC50 [2]: > 30 µM

Compound: COc1ccc(C(=O)Nc2ccccc2)cc1OCCCCOc1ccc(C(=O)CC(C)(C)C)c(O)c1C [compound 104, 3-(4-(4-(3,3-Dimethylbutanoyl)-3-hydroxy-2-methylphenoxy)butoxy)-4-methoxy-N-phenylbenzamide]
Emax [1]: 23.1 ± 1.4%
Emax [2]: 27 ± 3.4%

Compound: CCC(=O)c1ccc(OCCCCOc2cccc(C(=O)O)c2C)c(C)c1O [Compound 59, 3-(4-(3-Hydroxy-2-methyl-4-propionylphenoxy)butoxy)-2-methylbenzoic acid]
EC50 [2]: > 30 µM

Compound: Cc1c(OCc2cccc(-c3cccc(C(=O)O)c3)c2)ccc(C(=O)CCC(C)(C)C)c1O [compound 148]
mGlu2 PAM Max [1]: 100 ± 3.9%
EC50 [1]: 2110 ± 215 nM
mGlu3 PAM Max [2]: 101.7 ± 2.7%
EC50 [2]: 2.58 ± 0.272 µM

Compound: CC(=O)c1ccc(OCCCCOc2ccc(C(=O)O)cc2C)c(C)c1O [Compound 56, 4-(4-(4-Acetyl-3-hydroxy-2-methylphenoxy)butoxy)-3-methylbenzoic acid]
EC50 [2]: > 30 µM

Compound: Cc1c(OCc2cccc(-c3ccc(Cl)c(C(=O)O)c3)c2)ccc(C(=O)CC(C)(C)C)c1O [compound 133, 4-Chloro-3′-((4-(3,3-dimethylbutanoyl)-3-hydroxy-2-methylphenoxy)methyl)-[1,1′-biphenyl]-3-carboxylic acid]
EC50 [1]: 433 ± 99 nM
Emax [1]: 90.2 ± 4.1%
EC50 [2]: 1.71 ± 0.888 µM
Emax [2]: 70.9 ± 3.6%

Compound: Cc1c(OCc2cccc(-c3cccc(C(=O)O)c3)n2)ccc(C(=O)CC(C)(C)C)c1O [compound 159, 3-(6-((4-(3,3-Dimethylbutanoyl)-3-hydroxy-2-methylphenoxy)methyl)pyridin-2-yl)benzoic acid]
EC50 [1]: 929 ± 12 nM
Emax [1]: 104 ± 2.5%
EC50 [2]: 0.967 ± 0.008 µM
Emax [2]: 115 ± 2.1%

Compound: Cc1c(OCc2nnc(-c3cccc(C(=O)O)c3)s2)ccc(C(=O)CC(C)(C)C)c1O [compound 165, 3-(5-((4-(3,3-Dimethylbutanoyl)-3-hydroxy-2-methylphenoxy)methyl)-1,3,4-thiadiazol-2-yl)benzoic acid]
EC50 [1]: 1658 ± 8 nM
Emax [1]: 85.6 ± 1.3%
EC50 [2]: 1.41 ± 0.034 µM
Emax [2]: 95 ± 2.5%

Compound: Cc1c(OCc2cccc(COc3ccc(C#N)cc3)c2)ccc(C(=O)CC(C)C)c1C [compound 115]
EC50 [1]: > 30000 nM
EC50 [2]: > 30 µM

Compound: Cc1c(OCCCCOc2ccc(C(=O)O)cc2)ccc(C(=O)CC(C)C)c1C [Compound 18, 4-(4-(2,3-Dimethyl-4-(3-methylbutanoyl)phenoxy)butoxy)benzoic acid]
EC50 [1]: > 30000 nM
EC50 [2]: > 30 µM

Compound: Cc1c(OCCCCOc2cccc(C(=O)O)c2)ccc(C(=O)CC2CCCC2)c1C [Compound 23, 3-(4-(4-(2-Cyclopentylacetyl)-2,3-dimethylphenoxy)butoxy)benzoic acid]
EC50 [1]: > 30000 nM
EC50 [2]: > 30 µM

Compound: COc1ccc(C(=O)O)cc1OCCCCOc1ccc(C(C)=O)c(O)c1C [Compound 53, 3-(4-(4-Acetyl-3-hydroxy-2-methylphenoxy)butoxy)-4-methoxybenzoic acid]
EC50 [2]: > 30 µM

Compound: COc1ccc(C(=O)NS(C)(=O)=O)cc1OCCCCOc1ccc(C(=O)CC(C)(C)C)c(O)c1C [compound 93, 3-(4-(4-(3,3-Dimethylbutanoyl)-3-hydroxy-2-methylphenoxy)butoxy)-4-methoxy-N-(methylsulfonyl)benzamide]
EC50 [1]: 250 ± 55 nM
Emax [1]: 98.1 ± 1.1%
EC50 [2]: 0.265 ± 0.05 µM
Emax [2]: 110 ± 1.3%

Compound: COC(=O)c1ccc(OCc2cccc(COc3ccc(C(=O)CC4CCCC4)c(C)c3C)c2)cc1 [compound 155]
EC50 [1]: > 30000 nM
EC50 [2]: > 30 µM

Compound: Cc1c(OCc2cccc(-c3cccc(C(=O)O)c3)c2)ccc(C(=O)CC(C)(C)C)c1O [compound 127, 3′-((4-(3,3-Dimethylbutanoyl)-3-hydroxy-2-methylphenoxy)methyl)-[1,1′-biphenyl]-3-carboxylic acid]
EC50 [1]: 219 ± 43 nM
Emax [1]: 91.1 ± 2.6%
EC50 [2]: 0.343 ± 0.04 µM
Emax [2]: 104 ± 2.4%

Compound: COC(=O)c1ccc(OCCCCOc2ccc(C(=O)CC(C)C)c(O)c2C)cc1 [Compound 16, Methyl 4-(4-(3-hydroxy-2-methyl-4-(3-methylbutanoyl)phenoxy)butoxy)benzoate]
EC50 [1]: > 30000 nM
EC50 [2]: > 30 µM

Compound: Cc1c(OCCCCOc2ccc(C(=O)O)c(Cl)c2)ccc(C(=O)CC(C)C)c1C [Compound 30, 2-Chloro-4-(4-(2,3-dimethyl-4-(3-methylbutanoyl)phenoxy)butoxy)benzoic acid]
EC50 [2]: > 30 µM

Compound: Cc1c(OCCCCSc2ccncc2)ccc(C(=O)CC(C)C)c1C [Compound 189]
EC50 [1]: > 30000 nM
EC50 [2]: > 30 µM

Compound: COc1ccc(-c2cccc(COc3ccc(C(=O)CC(C)(C)C)c(O)c3C)c2)cc1C(=O)O [compound 140, 3′-((4-(3,3-Dimethylbutanoyl)-3-hydroxy-2-methylphenoxy)methyl)-4-methoxy-[1,1′-biphenyl]-3-carboxylic acid]
EC50 [1]: 489 ± 73 nM
Emax [1]: 86.1 ± 6.1%
EC50 [2]: 8.41 ± 4.84 µM
Emax [2]: 67.2 ± 13.3%

Compound: COc1cc(C(=O)O)ccc1OCCCCOc1ccc(C(=O)C(C)C)c(O)c1C [Compound 62, 4-(4-(3-Hydroxy-4-isobutyryl-2-methylphenoxy)butoxy)-3-methoxybenzoic acid]
EC50 [2]: > 30 µM

Compound: Cc1c(OCCCCOc2ccc(C(=O)C(C)C)c(O)c2C)cccc1C(=O)O [compound 64, 3-(4-(3-Hydroxy-4-isobutyryl-2-methylphenoxy)butoxy)-2-methylbenzoic acid]
EC50 [2]: > 30 µM

Compound: CCC(=O)c1ccc(OCCCCOc2ccc(C(=O)O)cc2OC)c(C)c1O [Compound 57, 4-(4-(3-Hydroxy-2-methyl-4-propionylphenoxy)butoxy)-3-methoxybenzoic acid]
EC50 [2]: > 30 µM

Compound: CC(=O)c1ccc(OCCCCOc2ccc(F)c(C(=O)O)c2)c(C)c1O [Compound 55, 5-(4-(4-Acetyl-3-hydroxy-2-methylphenoxy)butoxy)-2-fluorobenzoic acid]
EC50 [2]: > 30 µM

Compound: Cc1c(OCCCCOc2ccccc2C(=O)O)ccc(C(=O)CC2CCCC2)c1O [Compound 29, 2-(4-(4-(2-Cyclopentylacetyl)-3-hydroxy-2-methylphenoxy)butoxy)benzoic acid]
EC50 [2]: > 30 µM

Compound: Cc1c(OCCCCOc2ccccc2C(=O)O)ccc(C(=O)CC(C)C)c1O [Compound 28, 2-(4-(3-Hydroxy-2-methyl-4-(3-methylbutanoyl)phenoxy)butoxy)benzoic acid]
EC50 [2]: > 30 µM

Compound: CCC(=O)c1ccc(OCCCCOc2ccc(C(=O)O)cc2C)c(C)c1O [Compound 61, 4-(4-(3-Hydroxy-2-methyl-4-propionylphenoxy)butoxy)-3-methylbenzoic acid]
EC50 [2]: > 30 µM

Emax [2]: 110 ± 2.4%
Compound: COc1ccc(C(=O)O)cc1-c1cncc(COc2ccc(C(=O)CC(C)(C)C)c(O)c2C)c1 [compound 160, 3-(5-((4-(3,3-Dimethylbutanoyl)-3-hydroxy-2-methylphenoxy)methyl)pyridin-3-yl)-4-methoxybenzoic acid]

Compound: Cc1cc(C(=O)O)ccc1OCCCCOc1ccc(C(=O)C(C)C)c(O)c1C [compound 66, 4-(4-(3-Hydroxy-4-isobutyryl-2-methylphenoxy)butoxy)-3-methylbenzoic acid]
EC50 [2]: > 30 µM

Compound: CC(=O)c1ccc(OCCCCOc2cccc(C(=O)O)c2C)c(C)c1O [Compound 54, 3-(4-(4-Acetyl-3-hydroxy-2-methylphenoxy)butoxy)-2-methylbenzoic acid]
EC50 [2]: > 30 µM

EC50 [2]: > 30 µM
Compound: Cc1c(OCCCCOc2ccc(CCC(=O)O)c(O)c2)ccc(C(=O)CC(C)C)c1O [Compound 5, reference compound]

Compound: Cc1c(OCCCCOc2ccccc2C(=O)O)ccc(C(=O)CC2CCCC2)c1C [Compound 27, 2-(4-(4-(2-Cyclopentylacetyl)-2,3-dimethylphenoxy)butoxy)benzoic acid]
EC50 [2]: > 30 µM

Compound: COc1cc(C(=O)O)ccc1OCCCCOc1ccc(C(C)=O)c(O)c1C [Compound 52, 4-(4-(4-Acetyl-3-hydroxy-2-methylphenoxy)butoxy)-3-methoxybenzoic acid]
EC50 [2]: > 30 µM
